Test results taken from paper PMC10969810, “Green Extraction Strategy Using Bio-Based Aqueous Biphasic Systems for Polyphenol Valorization from Grape By-Product” (Foods, 2024).
In brackets after ≈: the same amount, converted by molar mass. Several values for one entry are separate records, joined by “and”; a condition that tells them apart may be missing. Equal values may be shown once. Read-outs that look alike come from different tables or passages of the source.

Legend:
[1] = Partition of polyphenols in cholinium salt/IL + PPG400 + water aqueous biphasic systems; format: physicochemical; details: for increase in RE by increasing the TLL: TLL 56.88 to 101.43, polyphenol content 2.5 g per L of ABS, pH~6, 25 °C
Description: Considering previously established phase diagrams of ABSs, ternary mixtures within the biphasic region were prepared, containing 20 wt% salt/IL + 50 wt% PPG400 + 30 wt% of H2O +10 μL of polyphenol solution. The polyphenol solutions were prepared in 80 vol% ethanol, with concentrations of circa 2500 mg L^−1 for each compound. […] The selected compositions of ABSs and corresponding TLLs are given in the Supplementary Materials.
Each ABS was prepared in 1.5 mL microcentrifuge tubes by adding the appropriate amount of constituents to achieve a final weight of 1 g. All systems were vigorously agitated (Reax Top, Heidolph, Schwabach, Germany) and left for 2 h at 25 °C in a thermo-shaker incubator (ALEMADR-MSC, Colo Lab Experts, Novo Mesto, Slovenia). Following 5 min of centrifugation at 5000× g rpm (LLG-uniCFUGE 5, Meckenheim, Germany), the phases were carefully separated, and their weights and volumes were measured. After appropriate dilution and filtration using syringe filters (0.45 μm), the contents of polyphenols in the phases were quantified by high-performance liquid chromatography (HPLC), as described in Section 2.5.
The logarithmic distribution coefficients (logD) of the polyphenols were calculated as the ratio of the equilibrium concentration of each polyphenol in the PPG400-rich and IL/salt-rich phases, as follows:(1) logD=log [Polyphenol]PPG400-phase/[Polyphenol]IL/salt-phase.
The selectivities (S) with respect to gallic acid were calculated according to the following equation:(4) SGA/Polyphenol=DGA/DPolyphenol where the subscript “Polyphenol” stands for resveratrol or quercetin.
The quantification of polyphenols was carried out using HPLC (Knauer, Berlin, Germany), which includes a DAD detector and an Ascentis C18 (SUPELCO), Darmstadt, Germany, column with a particle size of 5 µm and dimensions 250 mm × 4.6 mm. Chromatographic separation of the target polyphenols occurred at a constant flow rate of 1 mL min^−1, the injection volume for all samples was 20 μL, and the temperature of the column was fixed at 45 °C, with 10% acetonitrile (v/v) as mobile phase A and pure acetonitrile as mobile phase B. For partition studies, isocratic conditions were used for the determination of each compound (A:B = 60:40). Quantification in a complex sample after extraction from the real sample was achieved using a gradient mode, varying the mobile phase from 100% A to 100% B for 30 min.

[2] = Recovery of polyphenols from grape stem extract with [Ch][DHP]/PPG400 ABS; format: physicochemical; details: 40 wt% PPG400 + 25 wt% [Ch][DHP], 25 °C, pH ~6, TLL ~101, ~5 mg extract per g ABS
Description: Grapes collected from Quinta das Carvalhas, Pinhao (Regiao Demarcada do Douro, Portugal), were first separated into stems, seeds, and skins. All samples were freeze-dried, ground into powder, and stored in a desiccator. Two grams of the grape stem powder was mixed with 100 mL of a water:ethanol mixture (1:1, v:v), followed by stirring for 2 h and sonication for 5 min. The sample was centrifuged at 10,000× g rpm for 15 min, and the pellet was re-extracted. The supernatant was collected, and the solvent was evaporated under vacuum using a rotary evaporator at 40 °C. […]
The quantification of polyphenols was carried out using HPLC (Knauer, Berlin, Germany), which includes a DAD detector and an Ascentis C18 (SUPELCO), Darmstadt, Germany, column with a particle size of 5 µm and dimensions 250 mm × 4.6 mm. […] Quantification in a complex sample after extraction from the real sample was achieved using a gradient mode, varying the mobile phase from 100% A to 100% B for 30 min.
Guided by the results from the optimization studies, polyphenols were extracted from grape stem extract with specific conditions in mind based on previously determined extraction parameters. […] The RE for GA towards the [Ch][DHP] phase was 78.64%, and quercetin was not detected in the grape stem extract. […]

[3] = Solubility determination (UV spectroscopy of saturated solutions); format: physicochemical; details: thermodynamic from solid
Description: Quantification was carried out using calibration curves (R^2 > 0.99 in all cases) for each analyzed compound within the concentration range of 2.5 to 50 mg L^-1.

[4] = cited from earlier work
[5] = parameters: method as in doi:10.2478/s11696-013-0417-6, doi:10.1016/0016-7037(88)90089-0; details: cited from earlier work
[6] = parameters: method as in doi:10.1016/j.afres.2023.100381; details: ABSs of [Ch]Cl and different surfactants, rice husk hydrolysate; cited from earlier work
[7] = [Ch][DHP]/PPG400 ABS, tie line ~101, lowest phase volume ratio (0.20), 25 °C

O=C(O)c1cc(O)c(O)c(O)c1 [GA, gallic acid]
recovery efficiency (RE) toward the IL-rich phase ([1]; [Ch][DHP]-based ABS, 20 wt% IL + 50 wt% PPG400, TLL 101.43, volume ratio 0.50, 25 °C): 92.31 ± 2.31% and 90% | increase in RE by increasing the TLL ([1]; [Ch][DHP]/PPG400 ABS): ~2% | recovery efficiency (RE) toward the IL-rich phase [1, 7]: 88.7 ± 3.91% | recovery efficiency from grape stem extract towards the [Ch][DHP] phase [2]: 78.64% | recovery efficiency from grape stem extract towards the [Ch][DHP] phase ([2]; listed as gallic acid): 78% | solubility at 12 h ([3]; [Ch][DHP]/water 50:50, aqueous with cosolvent or surfactant or cyclodextrin, around 50 wt% [Ch][DHP] in water, 25 °C, read-out: maximal solubility in the [Ch][DHP]-rich phase): 140 mg/mL (≈ 822 mM) | solubility in water ([4]; no reference and method not given): 14.38 mg/mL (≈ 84.5 mM) | degradation ([5]; at 100 °C): 30% | temperature from which degradation begins [5]: 60 °C

O=c1c(O)c(-c2ccc(O)c(O)c2)oc2cc(O)cc(O)c12 [QC, quercetin]
selectivity SGA/QC (DGA/DQC) ([1]; [Ch][DHP]-based ABS, 25 °C): > 1000 | increase in RE by increasing the TLL ([1]; [Ch][DHP]/PPG400 ABS): ~9% | recovery efficiency (RE) toward the PPG-rich phase [1, 7]: 55.70 ± 2.13%

Oc1ccc(/C=C/c2cc(O)cc(O)c2)cc1 [RSV, trans-resveratrol]
increase in RE by increasing the TLL ([1]; [Ch][DHP]/PPG400 ABS): circa 7% | solubility at 12 h ([3]; PPG400/water 80:20 (v/v), aqueous with cosolvent or surfactant or cyclodextrin, PPG400/water 80:20, 25 °C, not the maximum solubility, read-out: solubility in PPG/water system matching the PPG phase): ≥ 100 mg/mL | solubility in pure water [4]: 0.039 mg/mL (≈ 0.171 mM)

COc1cc(/C=C/C(=O)O)ccc1O [ferulic acid]
yield in the surfactant-rich phase [6]: over 90%

O=C(O)/C=C/c1ccc(O)cc1 [p-coumaric acid]
yield in the surfactant-rich phase [6]: over 90%
